Results taken from publication PMC11362529, “Exploring the neuroprotective potential of Nrf2-pathway activators against annonacin toxicity” (Scientific Reports, 2024).

Legend:
LUHMES cells = experiment: Intracellular ATP levels (ViaLight plus kit); format: cell-based, human; settings: for intracellular ATP levels: protective concentration of compound + 20 nM annonacin, 24 h
Experimental: Mitochondrial activity was estimated by the reduction of MTT (3-(4,5-dimethylthiazol-2-yl)-2,5-diphenyltetrazolium, Sigma-Aldrich). Briefly, LUHMES cells were seeded on PLO/FN-coated 48-well microplates, in triplicates. After a 24 h treatment with 20 nM of annonacin and the protective concentrations of Nrf2-pathway activators in glucose-reduced medium, cells were incubated with 0.5 mg/ml of MTT dissolved in PBS, at 37 °C for 30 min. After that, the medium was removed and the plate was frozen at -80 °C for 1 h, for cell lysing. Next, the plate was thawed and the MTT crystals were completely dissolved in 250 µl of DMSO with vigorous shaking. The absorbance was measured on a FLUOstar® Omega plate reader at λ = 590 nm, using λ = 630 nm absorbance as a background correction. The obtained results were analyzed with the MARS data analysis software (BMG LabTech). After background subtraction, the data were expressed as a percentage of MTT reduction relative to the control (DMSO-treated) condition. Determination of cellular ATP levels was done by using the ViaLight™ plus kit (Lonza, Basel, Switzerland), following the manufacturer’s instructions. Cells were seeded on PLO/FN-coated 48-well microplates and the pharmacological treatments were done similarly as to the assessment of the MTT reduction. On the next day, the medium was removed and cells were washed once with warm HBSS and rested in 210 µl HBSS. The plate was left to reach RT before adding 70 µl cell lysis reagent to each well, provided by the kit. After a 10 min incubation, 10 µl of each lysed cell extract was transferred to a 384-well white plate and combined with 10 µl of ATP monitoring reagent plus. The plate was incubated in the dark for 10 min at RT before the luminescence signal was measured on a FLUOstar® Omega plate reader. The obtained results were analyzed with the MARS data analysis software (BMG LabTech) and expressed as RLUs. For background correction, the RLUs detected for the background control (i.e., 10 µl of ATP monitoring reagent plus combined with 10 µl of cell lysis reagent) were subtracted from the measured RLUs values of all testing conditions.

pThr-181 tau = experiment: AT270 (pThr-181 tau) immunofluorescence; format: cell-based, human; settings: 48 h
Experimental: For immunostaining, cells were seeded in differentiation medium, on 24-well microplates containing PLO/FN-coated 13 mm Ø coverslips, and treated for 48 h as previously described. On the readout day, the medium was removed and cells were fixed, permeabilized and blocked as before. Primary antibody dilutions were made in 1.5% NHS in PBS (Supplementary Table S1) and incubated overnight at 4 °C. On the following day, the coverslips were washed three times with PBS and incubated with host-specific fluorescence secondary antibodies (Supplementary Table S1), for 2 h at RT, protected from light. After another three washes with PBS, cell nuclei were stained with 1:5,000 DAPI (4’,6-diamidino-2-phenylindole, Thermo Fisher Scientific) in PBS, for 15 min at RT. The coverslips were mounted in mowiol and left to dry for 24 h before imaging. Image acquisition for FI quantification was done with a 200 × magnification (20 × objective, 10 × intermediate magnification), or 400x (40 × objective, 10 × intermediate magnification) in the case of pSC-35 and AT8 immunostaining, on a fluorescence microscope Leica-DFC9000GTC (Leica). In the case of phospho-tau AT8, Z-stacks consisting of 18 plane images with a step size of 1 μm were acquired. The image acquisition parameters were identical for all conditions. Quantification of 8-OHdG (8-hydroxyguanosine) FI and tau species was performed using the ImageJ software. Ten-to-fifteen images per condition across triplicates, from different view fields, were used for this purpose. Briefly, TIFF exported images were submitted to background subtraction using the rolling ball method with a radius of 50 pixels. For 8-OHdG analysis, a channel-specific threshold was applied to all images to define the ROI and FI was measured and normalized to the cell number, determined by the DAPI channel. The average value of the different view fields per experimental condition was taken and reported as fold change compared to the control (DMSO-treated) condition. For the analysis of phospho-tau AT270 and pan-tau reactivity, channel specific thresholds were applied to all images. The DAPI channel was used to define nuclei from viable cells, by selecting particles with a size above 15 µm^2 and a circularity of 0.3–1.0. The obtained mask was submitted to “close” and “fill holes” processes to smooth the objects and fill in small holes, followed by nine “dilations” and one “watershed” to obtain a ROI covering exclusively the soma of viable cells. The obtained mask was combined with threshold images of phospho-tau AT270 and pan-tau in order to define the respective ROI of each tau species. These masks were used to quantify the number of somas expressing each of these tau species, as well as the respective FI. The number of AT270-positive somas was divided by the number of pan-tau-positive somas and expressed as a percentage. The AT270 FI was normalized to the pan-tau FI and the ratio presented as fold change relative to the control (DMSO-treated) condition. For quantification of pSC-35 and AT8 speckle number and FI, we used CellProfiler™ 4 (https://cellprofiler.org/, Broad Institute Inc., Cambridge, MA, USA) speckle counting pipeline. Twenty-to-thirty images per condition across triplicates were used for this purpose. ImageJ BIOP JACoP plugin was used for estimating co-localization of AT8 with DAPI-stained nuclei. Data were reported as fold change compared to the control (DMSO-treated) condition, or as Pearsonʹs coefficient values in case the of AT8 co-localization data.

[1] = protective concentration of compound + 20 nM annonacin, vs annonacin

Structure (SMILES)	ATP production (LUHMES cells; annonacin alone)	AT270-positive somas (pThr-181 tau; 20 nM annonacin alone)	AT270 reactivity normalized to pan-tau, in the soma area (pThr-181 tau; 20 nM annonacin alone)	pThr-181 tau (AT270) normalized to pan-tau, neuritic and somatic compartment (pThr-181 tau; 20 nM annonacin alone)	intracellular ATP levels (LUHMES cells)	AT270-positive somas (pThr-181 tau; 15 μM ezetimibe + 20 nM annonacin)	pThr-181 tau (AT270) normalized to pan-tau, neuritic and somatic compartment (pThr-181 tau; [1])
CCCCCCCCCCCC[C@@H](O)[C@H]1CC[C@H]([C@H](O)CCCC[C@H](O)CCCCC[C@@H](O)CC2=CC(C)OC2=O)O1 (some centres unmarked) [annonacin]	impaired ATP production	more than 90%	1.9 ratio	3.4 ratio			
O=C1[C@H](CC[C@H](O)c2ccc(F)cc2)[C@@H](c2ccc(O)cc2)N1c1ccc(F)cc1 [ezetimibe]					lower intracellular ATP levels	75%	attenuated annonacin-induced tau hyperphosphorylation
Cn1c(Nc2nc3ccc(C(F)(F)F)cc3s2)nc2cc(C(=O)NCCOCCO)ccc21 [HPP-D]					intracellular ATP levels no longer statistically different from healthy control cells		attenuated annonacin-induced tau hyperphosphorylation
C=CC(C)(C)c1cc(/C=C/C(=O)c2ccc(O)cc2)c(OC)cc1O [licochalcone A]					lower intracellular ATP levels		attenuated annonacin-induced tau hyperphosphorylation
